Test results as given in patent US20220041578A1, “ISOINDOLINE COMPOUND, AND PREPARATION METHOD, PHARMACEUTICAL COMPOSITION, AND APPLICATION OF ISOINDOLINE COMPOUND” (Shanghai Institute of Meteria Medica, Chinese Academy of …, priority 2018, published 2022).

Legend:
Format in all cases: cell-based
Mino cells = assay: Effect of the compound on the proliferation of Mino cells (MTS); conditions: Homo sapiens, 72 h, 3 days, read-out: Inhibitory activity (IC50)
Method in brief: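 Mino cells, 8000/well, treated 3 days at 37 °C/5% CO2 with 5-fold compound dilutions from 10 mM stock (0.2% DMSO final). MTS added for 3-4 h; OD490 minus OD690 read, inhibition relative to DMSO and blank, IC50 fitted. Three repeats, each in triplicate.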

[1] = tested on: prostate cancer cells DU145; assay: Proliferation of other tumor cells, DU145 (WST-8); conditions: Homo sapiens, DU-145, 96 h, 4 days, read-out: Inhibitory activity on proliferation, DU145 (IC50)
Description: The human triple negative breast cancer cells MDA-MB-468 and MDA-MB-231 used in this experiment were purchased from the Shanghai Cell Bank, in which L-15 medium added with 10% fetal bovine serum (FBS) and 1% double antibody was used. At 37° C., MDA-MB-468 and MDA-MB-231 cells were cultured in an incubator without CO2. Colorectal cancer cells HCT-116 were cultured in McCOY's 5A medium with 1% double antibody and 10% fetal bovine serum (FBS); prostate cancer cells DU145 were cultured in MEM medium with 1% double antibody and 10% fetal bovine serum (FBS); prostate cancer cells PC-3 were cultured in F-12 K medium with 1% double antibody and 10% fetal bovine serum (FBS); grew at 37° C., 5% CO2.
In the cell activity test experiment, 90 μL cell suspension with appropriate concentration was added to a 96-well cell culture plate according to the cell growth, each compound to be tested was gradient diluted with the corresponding medium, 10 μL diluted compound was added to 90 μL cells, and then incubated at 37° C. for 4 days. Cell proliferation was analyzed by WST-8, which could be reduced by lactate dehydrogenase in the cells to a yellow formazan. 10 μL of WST-8 reagent (DOJINDO) was added to the cells and reacted for more than 1 hour at 37° C., DMSO-treated cells were used as […]. The absorption value of 490 nm was read by enzyme-labeled plate, and the absorption value of 690 nm was taken as the background value, and OD490-OD690 was taken as the final original data, and the data was processed by GraphPad Prism6 software. The formula for calculating the inhibition rate of the compound was: inhibition rate=(ODDMSO−ODcompound)/(ODDMSO−Oblank)×100%. The compound's proliferation inhibition IC50 was fitted by Graph Pad Prism 5.0. The experiment was repeated three times, and three parallel experiments were used to calculate the average and standard deviation each time. The cell viability test results were shown in Table 4: A means cell viability IC50<1 μM, B means cell viability 1 μM≤IC50≤20 μM, C means cell viability IC50>20 μM, NT means not tested.

IL-2 = IL-2 expression change in anti-human CD3 stimulated PBMC (ELISA); conditions: compound 10 nM, anti-human CD3 10 ug/ml, 24 hours
Description: (§1) All operations of this experiment were carried out according to the conventional experimental process of this kind of experiment at present. Peripheral blood from healthy volunteers was collected by routine standard procedure and cultured in 1640 medium (+10% FBS) to obtain PBMC. After recovery, PBMC was centrifuged and resuspended in serum-free medium. After counting, adjusted the density to be 6.25×10^5/ml; then inoculated 160 ul to a 96-well plate, 2 holes each, 1×10^5/well; 20 ul 10× compound and DMSO were added, and incubated for 1 hour in an incubator; then 20 ul 10× anti-human CD3 was added resulting the final concentration of 10 ug/ml and incubated in an incubator for 24 hours. Centrifuged the cell plate at 1500 rpm and aspirated 50 ul supernatant according to the ELISA operation. After operating according to the kit, a microplate reader was used to read at 450 nm. The concentration of compound was 10 nM, and DMSO was added as control group. Materials used in this experiment: 96 well plate (Corning, #3599), ELISA kit (Thermo), LPS (Sigma, USA).

IFNγ = IFNγ expression change in anti-human CD3 stimulated PBMC (ELISA); conditions: compound 10 nM, anti-human CD3 10 ug/ml, 24 hours
Description: as §1, with “USA). It was found from the test results of the following table that the compounds of the examples of the present invention could be used to regulate the expression of IFNγ.” for “USA).”

- IC50 [1]: > 20 µM
Compound: Nc1cccc2c1CN(C1CCC(=O)NC1=O)C2=O (stereo not shown) [Lenalidomide, lenalidomide, reference compound]
- IC50 (Mino cells): > 20 µM
- Increase multiple of IL-2 Expression (IL-2): >3
- Increase multiple of IFNγ expression (IFNγ): >1.5
